Assay results from ChEMBL document CHEMBL1142021, “Aglycon specificity profiling of alpha-glucosidases using synthetic probes” (Bioorg Med Chem Lett, 2005).

Experiments:
Saccharomyces cerevisiae = assay: Inhibition of Saccharomyces cerevisiae glucosidase (of family 13 alpha-glucosidase) by compound with concentration 1 umol/mI
[1] = biological target: T1, Alpha-glucosidase (Apis mellifera) (UniProt Q17058); assay: Inhibition of family 13 alpha-glucosidase isoform II from honey bee at 1 umol/mL
T1 sequence (whole entry): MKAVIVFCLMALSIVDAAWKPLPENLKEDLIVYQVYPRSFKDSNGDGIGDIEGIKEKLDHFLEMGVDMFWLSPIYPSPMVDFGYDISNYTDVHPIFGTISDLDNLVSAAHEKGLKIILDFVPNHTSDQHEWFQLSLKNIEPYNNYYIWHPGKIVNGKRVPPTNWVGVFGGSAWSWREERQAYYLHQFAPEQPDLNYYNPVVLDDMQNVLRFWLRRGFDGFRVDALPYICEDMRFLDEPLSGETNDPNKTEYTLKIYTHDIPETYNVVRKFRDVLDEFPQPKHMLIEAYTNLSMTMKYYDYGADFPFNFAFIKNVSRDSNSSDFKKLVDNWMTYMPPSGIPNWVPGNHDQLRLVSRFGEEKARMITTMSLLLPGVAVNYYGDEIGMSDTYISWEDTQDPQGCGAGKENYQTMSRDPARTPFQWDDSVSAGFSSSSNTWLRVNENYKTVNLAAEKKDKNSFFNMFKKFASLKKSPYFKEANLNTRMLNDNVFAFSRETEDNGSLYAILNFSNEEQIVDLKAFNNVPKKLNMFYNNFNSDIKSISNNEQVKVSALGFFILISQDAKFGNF

[2] = biological target: T2, Mannosyl-oligosaccharide glucosidase (Homo sapiens) (UniProt Q13724); assay: Inhibition of Glucosidase 1 (of Endoplasmic reticulum processing alpha-glucosidase) at 2 umol/mL
T2 sequence (whole entry): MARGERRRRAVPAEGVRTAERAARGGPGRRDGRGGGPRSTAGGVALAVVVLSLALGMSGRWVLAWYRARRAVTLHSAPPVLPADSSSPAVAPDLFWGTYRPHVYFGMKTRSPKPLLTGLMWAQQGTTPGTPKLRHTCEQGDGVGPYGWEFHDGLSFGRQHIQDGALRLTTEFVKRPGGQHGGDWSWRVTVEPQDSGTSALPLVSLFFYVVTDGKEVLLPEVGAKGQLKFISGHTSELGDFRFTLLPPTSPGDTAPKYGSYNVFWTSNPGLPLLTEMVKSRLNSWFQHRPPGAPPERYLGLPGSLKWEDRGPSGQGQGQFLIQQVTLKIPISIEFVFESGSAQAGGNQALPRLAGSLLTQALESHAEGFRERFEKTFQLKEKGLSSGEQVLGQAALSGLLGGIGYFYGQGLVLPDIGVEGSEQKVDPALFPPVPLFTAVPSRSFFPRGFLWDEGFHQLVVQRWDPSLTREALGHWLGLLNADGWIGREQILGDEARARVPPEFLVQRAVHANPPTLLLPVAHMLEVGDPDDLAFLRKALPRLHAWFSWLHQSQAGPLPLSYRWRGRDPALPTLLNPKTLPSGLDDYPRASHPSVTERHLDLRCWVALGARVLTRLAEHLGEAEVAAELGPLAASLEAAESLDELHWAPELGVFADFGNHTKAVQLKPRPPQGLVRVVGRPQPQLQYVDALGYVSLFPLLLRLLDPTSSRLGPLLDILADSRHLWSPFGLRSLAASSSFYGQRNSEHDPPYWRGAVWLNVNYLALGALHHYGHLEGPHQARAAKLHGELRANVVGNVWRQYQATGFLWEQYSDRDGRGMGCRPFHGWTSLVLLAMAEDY

Homo sapiens = organism: Homo sapiens; assay: Inhibition of alpha-Galactosidase at 5 umol/mL
[3] = biological target: T3, Alpha-glucosidase (Aspergillus niger) (UniProt P56526); assay: Inhibition of Aspergillus niger glucosidase (of family 31 alpha-glucosidase) at 1 umol/mL
T3 sequence (whole entry): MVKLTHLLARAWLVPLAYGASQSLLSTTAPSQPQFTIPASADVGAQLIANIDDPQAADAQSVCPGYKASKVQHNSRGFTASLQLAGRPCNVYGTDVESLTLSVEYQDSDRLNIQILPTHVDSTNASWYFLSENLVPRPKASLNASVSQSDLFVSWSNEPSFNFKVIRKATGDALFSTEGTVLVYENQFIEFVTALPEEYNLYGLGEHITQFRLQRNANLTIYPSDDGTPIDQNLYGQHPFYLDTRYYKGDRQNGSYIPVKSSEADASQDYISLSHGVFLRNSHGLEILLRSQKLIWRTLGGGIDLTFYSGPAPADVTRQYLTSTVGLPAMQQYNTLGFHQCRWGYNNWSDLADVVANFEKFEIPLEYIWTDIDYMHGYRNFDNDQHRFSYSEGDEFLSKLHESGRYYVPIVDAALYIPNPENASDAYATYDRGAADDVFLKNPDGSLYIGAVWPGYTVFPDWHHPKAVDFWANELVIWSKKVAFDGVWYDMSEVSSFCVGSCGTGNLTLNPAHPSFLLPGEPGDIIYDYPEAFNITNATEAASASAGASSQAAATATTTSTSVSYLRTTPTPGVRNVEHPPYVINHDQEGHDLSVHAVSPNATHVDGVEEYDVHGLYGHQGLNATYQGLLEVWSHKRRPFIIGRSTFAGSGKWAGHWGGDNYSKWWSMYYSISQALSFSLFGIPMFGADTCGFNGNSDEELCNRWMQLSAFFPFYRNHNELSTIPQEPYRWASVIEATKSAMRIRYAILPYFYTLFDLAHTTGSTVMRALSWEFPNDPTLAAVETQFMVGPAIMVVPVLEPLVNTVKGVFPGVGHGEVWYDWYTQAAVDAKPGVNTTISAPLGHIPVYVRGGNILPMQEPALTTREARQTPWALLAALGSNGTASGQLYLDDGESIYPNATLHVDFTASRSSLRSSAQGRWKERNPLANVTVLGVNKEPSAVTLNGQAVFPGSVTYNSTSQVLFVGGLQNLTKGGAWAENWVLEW

Row | SMILES | inhibition (Saccharomyces cerevisiae) [%] | inhibition [1] [%] | inhibition [2] [%] | inhibition (Homo sapiens) [%] | inhibition [3] [%]
1 | CC(C)(C)C(=O)NCC1OC(CO)C(O)C(O)C1O (stereo not drawn) | 6.1 | < 1 | < 1 | < 1 | 1.2
2 | O=C(CO)NCC1OC(CO)C(O)C(O)C1O (stereo not drawn) | < 1 | 4.4 | < 1 | < 1 | 6.6
3 | CC(=O)NCC1OC(CO)C(O)C(O)C1O (stereo not drawn) | < 1 | < 1 | < 1 | < 1 | 23.3
4 | O=C(NCC1OC(CO)C(O)C(O)C1O)c1ccccc1 (stereo not drawn) | 67.4 |  |  | < 1 | 14
5 | O=C(CCO)NCC1OC(CO)C(O)C(O)C1O (stereo not drawn) | 21.1 | 2.7 | < 1 | < 1 | 2.6

Now from value to compound:

Row | inhibition (Saccharomyces cerevisiae) [%] | inhibition [1] [%] | inhibition [2] [%] | inhibition (Homo sapiens) [%] | inhibition [3] [%] | SMILES
6 | < 1 | 3.6 | < 1 | < 1 | < 1 | O=C(CCCO)NCC1OC(CO)C(O)C(O)C1O (stereo not drawn)
7 | 100 | 21.4 | < 1 | < 1 | 6.8 | O=C(CCCCO)NCC1OC(CO)C(O)C(O)C1O (stereo not drawn)
8 | < 1 | 4.4 | < 1 | < 1 | < 1 | O=C(CCCCCO)NCC1OC(CO)C(O)C(O)C1O (stereo not drawn)
